This experiment has as its target T1, Caspase-3 (Recombinant human Caspase-3 protein (Active)) (Homo sapiens, UniProt P42574).
T1 sequence (P42574 29-175): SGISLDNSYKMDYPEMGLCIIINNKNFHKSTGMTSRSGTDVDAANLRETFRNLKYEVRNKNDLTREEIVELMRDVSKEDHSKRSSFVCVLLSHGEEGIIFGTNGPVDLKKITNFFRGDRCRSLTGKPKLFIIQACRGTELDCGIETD
T1 sequence (P42574 176-277): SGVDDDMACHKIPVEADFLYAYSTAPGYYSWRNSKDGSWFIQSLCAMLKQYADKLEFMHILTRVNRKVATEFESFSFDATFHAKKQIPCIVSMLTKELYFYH
Nature of the experiment: SPR, Biacore T200, CM5 chip, immobilised caspase-3. Format: binding. (In general: SPR reads the build-up and loss of mass on a sensor chip optically.)

As a reminder, the pKd is the negative decadic logarithm of the Kd, by convention in mol/L.

SMILES strings stand for the structures. pKd: −log10 of the molar value.

`OC[C@H]1O[C@@H](OCCc2ccc(O)cc2)[C@H](O)[C@@H](O)[C@@H]1O` [Salidroside]: the negative logarithm of the Kd (pKd) was 4.12.

Source of the values: publication PMC12297698 (Scientific Reports, 2025).
